Measured values reported in US11655246B2, “Aminothiazole compounds as inhibitors of CTPS1” (STEP PHARMA S.A.S., priority 2017, dated 2023).

Each molecule was assayed against T1, human CTPS1 (Homo sapiens, UniProt P17812) (assay: Human CTPS1 enzyme inhibition (ADP-Glo Max assay)). Details: Table 18, additional potency data, 25° C., read-out: CTPS1 (Human CTPS1 Enzyme Inhibition data grouped by potency range).
T1 construct: purchased Proteros biostructures GmbH
T1 sequence (P17812 1-591): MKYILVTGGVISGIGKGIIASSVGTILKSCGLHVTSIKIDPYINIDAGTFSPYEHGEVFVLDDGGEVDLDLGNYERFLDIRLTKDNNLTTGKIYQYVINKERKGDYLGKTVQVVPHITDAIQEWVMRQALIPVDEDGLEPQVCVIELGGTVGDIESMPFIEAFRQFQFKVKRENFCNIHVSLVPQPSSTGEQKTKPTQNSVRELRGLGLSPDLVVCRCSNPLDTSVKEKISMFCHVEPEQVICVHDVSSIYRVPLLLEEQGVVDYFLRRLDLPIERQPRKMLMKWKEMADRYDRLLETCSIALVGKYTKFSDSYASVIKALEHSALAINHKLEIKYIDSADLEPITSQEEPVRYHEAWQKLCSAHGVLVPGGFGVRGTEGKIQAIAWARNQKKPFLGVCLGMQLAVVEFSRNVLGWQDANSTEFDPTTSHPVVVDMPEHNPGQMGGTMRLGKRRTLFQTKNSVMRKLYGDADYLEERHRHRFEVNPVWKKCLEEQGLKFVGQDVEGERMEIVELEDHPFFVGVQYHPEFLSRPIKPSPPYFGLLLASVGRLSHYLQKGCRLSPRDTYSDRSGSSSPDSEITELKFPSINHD
Assay type: biochemical
Method in brief: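 ADP-Glo Max luminescence detection of ATP-to-ADP conversion by the enzyme, in 50 mM Tris, 10 mM MgCl2, 0.01% Tween-20, pH 8.0, with 2 mM L-cysteine added fresh. Enzyme preincubated with compound 10 minutes at 25° C. Percentage inhibition calculated per compound concentration.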
`Cc1cc(-c2cncc(C(F)(F)F)n2)ccc1NC(=O)C(C)(C)c1csc(NS(=O)(=O)C2CC2)n1` [T368, 2-(2-(cyclopropanesulfonamido)thiazol-4-yl)-2-methyl-N-(2-methyl-4-(6-(trifluoromethyl)pyrazin-2-yl)phenyl)propanamide] showed an IC50 of less than 100 nM. For `COc1cc(-c2cncc(Cl)c2)c(F)cc1NC(=O)C(C)(C)c1csc(NS(=O)(=O)C2CC2)n1` [T369, N-(4-(5-chloropyridin-3-yl)-5-fluoro-2-methoxyphenyl)-2-(2-(cyclopropanesulfonamido)thiazol-4-yl)-2-methylpropanamide], the IC50 was 100 to 1000 nM. `CCOc1cncc(-c2ccc(NC(=O)C(C)(C)c3csc(NS(=O)(=O)C4CC4)n3)cc2C)n1` [T371, 2-(2-(cyclopropanesulfonamido)thiazol-4-yl)-N-(4-(6-ethoxypyrazin-2-yl)-3-methylphenyl)-2-methylpropanamide] showed an IC50 of less than 100 nM. Molecule `CCOc1cc(NC(=O)C(C)(C)c2csc(NS(=O)(=O)C3CC3)n2)ccc1-c1cncc(Cl)c1` [T372, N-(4-(5-chloropyridin-3-yl)-3-ethoxyphenyl)-2-(2-(cyclopropanesulfonamido)thiazol-4-yl)-2-methylpropanamide] has an IC50 of 100 to 1000 nM. Work on `O=C(Nc1ccc(-c2cncc(Cl)c2)cc1)C1(c2csc(NS(=O)(=O)C3CC3)n2)CC1` [T373, N-(4-(5-chloropyridin-3-yl)phenyl)-1-(2-(cyclopropanesulfonamido)thiazol-4-yl)cyclopropane-1-carboxamide] yielded an IC50 of less than 100 nM. Work on `Cc1sc(NS(=O)(=O)C2CC2)nc1C(C)(C)C(=O)Nc1ccc(-c2cncc(C#N)c2)cc1` [T374, N-(4-(5-cyanopyridin-3-yl)phenyl)-2-(2-(cyclopropanesulfonamido)-5-methylthiazol-4-yl)-2-methylpropanamide] yielded an IC50 of 1000 to 10000 nM. Work on `COC(C)(C)c1cncc(-c2ccc(NC(=O)C(C)(C)c3csc(NS(=O)(=O)C4CC4)n3)cc2)n1` [T375, 2-(2-(cyclopropanesulfonamido)thiazol-4-yl)-N-(4-(6-(2-methoxypropan-2-yl)pyrazin-2-yl)phenyl)-2-methylpropanamide] yielded an IC50 of 100 to 1000 nM. For `CCOc1cncc(-c2ccc(NC(=O)C(C)(C)c3nc(NS(=O)(=O)C4CC4)sc3Cl)cc2)n1` [T376, 2-(5-chloro-2-(cyclopropanesulfonamido)thiazol-4-yl)-N-(4-(6-ethoxypyrazin-2-yl)phenyl)-2-methylpropanamide], the IC50 was 100 to 1000 nM. `CCOc1cncc(-c2ccc(NC(=O)C(C)(C)c3nc(NS(=O)(=O)C4CC4)sc3OC)cc2)n1` [T377, 2-(2-(cyclopropanesulfonamido)-5-methoxythiazol-4-yl)-N-(4-(6-ethoxypyrazin-2-yl)phenyl)-2-methylpropanamide] showed an IC50 of 100 to 1000 nM. `CC(C)(C(=O)Nc1ccc(-c2cncc(OCC3CCCC3)n2)cc1)c1csc(NS(=O)(=O)C2CC2)n1` [T378, N-(4-(6-(cyclopentylmethoxy)pyrazin-2-yl)phenyl)-2-(2-(cyclopropanesulfonamido)thiazol-4-yl)-2-methylpropanamide] showed an IC50 of 1000 to 10000 nM. In the case of `CC(C)(C(=O)Nc1ccc(-c2cncc(O)n2)cc1)c1csc(NS(=O)(=O)C2CC2)n1` [T379, 2-(2-(cyclopropanesulfonamido)thiazol-4-yl)-N-(4-(6-hydroxypyrazin-2-yl)phenyl)-2-methylpropanamide], the IC50 is reported as 1000 to 10000 nM. `CCS(=O)(=O)Nc1nc(C(C)(C)C(=O)Nc2ccc(-c3cncc(C(F)(F)F)c3)cn2)cs1` [T380, 2-(2-(ethylsulfonamido)thiazol-4-yl)-2-methyl-N-(5′-(trifluoromethyl)-[3,3′-bipyridin]-6-yl)propanamide] gave an IC50 of less than 100 nM. `CCS(=O)(=O)Nc1nc(C(C)(C)C(=O)Nc2ccc(-c3cncc(C(F)(F)F)n3)cn2)cs1` [T381, 2-(2-(ethylsulfonamido)thiazol-4-yl)-2-methyl-N-(5-(6-(trifluoromethyl)pyrazin-2-yl)pyridin-2-yl)propanamide] was tested, and the IC50 was less than 100 nM. `CCOc1cncc(-c2ccc(NC(=O)C(C)(C)c3csc(NS(=O)(=O)CC)n3)nc2)n1` [T382, N-(5-(6-ethoxypyrazin-2-yl)pyridin-2-yl)-2-(2-(ethylsulfonamido)thiazol-4-yl)-2-methylpropanamide] showed an IC50 of less than 100 nM. `CCS(=O)(=O)Nc1nc(C(C)(C)C(=O)Nc2ccc(-c3cncc(OC(C)C)n3)cc2F)cs1` [T383, 2-(2-(ethylsulfonamido)thiazol-4-yl)-N-(2-fluoro-4-(6-isopropoxypyrazin-2-yl)phenyl)-2-methylpropanamide] was tested, and the IC50 was less than 100 nM. For `CCS(=O)(=O)Nc1nc(C(C)(C)C(=O)Nc2ccc(-c3cncc(C#N)c3)cc2)cs1` [T384, N-(4-(5-cyanopyridin-3-yl)phenyl)-2-(2-(ethylsulfonamido)thiazol-4-yl)-2-methylpropanamide], the IC50 was 100 to 1000 nM. `CCS(=O)(=O)Nc1nc(C(C)(C)C(=O)Nc2ccc(-c3cncc(F)c3)cc2)cs1` [T385, 2-(2-(ethylsulfonamido)thiazol-4-yl)-N-(4-(5-fluoropyridin-3-yl)phenyl)-2-methylpropanamide] gave an IC50 of less than 100 nM. `CCS(=O)(=O)Nc1nc(C(C)(C)C(=O)Nc2ccc(-c3cccnc3)cc2)cs1` [T386, 2-(2-(ethylsulfonamido)thiazol-4-yl)-2-methyl-N-(4-(pyridin-3-yl)phenyl)propanamide] gave an IC50 of 100 to 1000 nM. `CCS(=O)(=O)Nc1nc(C(C)(C)C(=O)Nc2ccc(-c3cncc(C(F)(F)F)n3)cc2)cs1` [T387, 2-(2-(ethylsulfonamido)thiazol-4-yl)-2-methyl-N-(4-(6-(trifluoromethyl)pyrazin-2-yl)phenyl)propanamide] gave an IC50 of less than 100 nM. `CCS(=O)(=O)Nc1nc(C(C)(C)C(=O)Nc2ccc(-c3cncc(OC(C)C)n3)cc2)cs1` [T388, 2-(2-(ethylsulfonamido)thiazol-4-yl)-N-(4-(6-isopropoxypyrazin-2-yl)phenyl)-2-methylpropanamide] gave an IC50 of less than 100 nM. `CC(C)(C(=O)Nc1ccc(-c2cncc(C(F)(F)F)c2)cn1)c1csc(NS(C)(=O)=O)n1` [T389, 2-methyl-2-(2-(methylsulfonamido)thiazol-4-yl)-N-(5′-(trifluoromethyl)-[3,3′-bipyridin]-6-yl)propanamide] gave an IC50 of 100 to 1000 nM. `CCOc1cncc(-c2ccc(NC(=O)C(C)(C)c3csc(NS(C)(=O)=O)n3)nc2)n1` [T390, N-(5-(6-ethoxypyrazin-2-yl)pyridin-2-yl)-2-methyl-2-(2-(methylsulfonamido)thiazol-4-yl)propanamide] gave an IC50 of less than 100 nM. Molecule `CC(C)(C(=O)Nc1ccc(-c2cncc(C(F)(F)F)n2)cc1F)c1csc(NS(C)(=O)=O)n1` [T391, N-(2-fluoro-4-(6-(trifluoromethyl)pyrazin-2-yl)phenyl)-2-methyl-2-(2-(methylsulfonamido)thiazol-4-yl)propanamide] has an IC50 of less than 100 nM. `CC(C)Oc1cncc(-c2ccc(NC(=O)C(C)(C)c3csc(NS(C)(=O)=O)n3)c(F)c2)n1` [T392, N-(2-fluoro-4-(6-isopropoxypyrazin-2-yl)phenyl)-2-methyl-2-(2-(methylsulfonamido)thiazol-4-yl)propanamide] showed an IC50 of less than 100 nM. `CC(C)(C(=O)Nc1ccc(-c2cncc(Cl)c2)cc1)c1csc(NS(C)(=O)=O)n1` [T393, N-(4-(5-chloropyridin-3-yl)phenyl)-2-methyl-2-(2-(methylsulfonamido)thiazol-4-yl)propanamide] gave an IC50 of 100 to 1000 nM. In the case of `CC(C)(C(=O)Nc1ccc(-c2cncc(C(F)(F)F)n2)cc1)c1csc(NS(C)(=O)=O)n1` [T394, 2-methyl-2-(2-(methylsulfonamido)thiazol-4-yl)-N-(4-(6-(trifluoromethyl)pyrazin-2-yl)phenyl)propanamide], the IC50 is reported as less than 100 nM. Molecule `CC(C)Oc1cncc(-c2ccc(NC(=O)C(C)(C)c3csc(NS(C)(=O)=O)n3)cc2)n1` [T395, N-(4-(6-isopropoxypyrazin-2-yl)phenyl)-2-methyl-2-(2-(methylsulfonamido)thiazol-4-yl)propanamide] has an IC50 of less than 100 nM. For `CC(C)(C(=O)Nc1ccc(-c2cncc(C(F)(F)F)n2)cn1)c1csc(NS(=O)(=O)CC2CC2)n1` [T396, 2-(2-((cyclopropylmethyl)sulfonamido)thiazol-4-yl)-2-methyl-N-(5-(6-(trifluoromethyl)pyrazin-2-yl)pyridin-2-yl)propanamide], the IC50 was 100 to 1000 nM. `O=C(Nc1ccc(-c2cncc(C(F)(F)F)n2)cc1)C1(c2csc(NS(=O)(=O)C3CC3)n2)CC1` [T397, 1-(2-(cyclopropanesulfonamido)thiazol-4-yl)-N-(4-(6-(trifluoromethyl)pyrazin-2-yl)phenyl)cyclopropane-1-carboxamide] showed an IC50 of 100 to 1000 nM. With `CCOc1cncc(-c2ccc(NC(=O)C3(c4csc(NS(=O)(=O)C5CC5)n4)CC3)cc2)n1` [T398, 1-(2-(cyclopropanesulfonamido)thiazol-4-yl)-N-(4-(6-ethoxypyrazin-2-yl)phenyl)cyclopropane-1-carboxamide] the IC50 was less than 100 nM. With `COCCC(C(=O)Nc1ccc(-c2cncc(C(F)(F)F)n2)cc1F)c1csc(NS(=O)(=O)C2CC2)n1` (stereo not shown) [T399, 2-(2-(cyclopropanesulfonamido)thiazol-4-yl)-N-(2-fluoro-4-(6-(trifluoromethyl)pyrazin-2-yl)phenyl)-4-methoxybutanamide] the IC50 was less than 100 nM.
